Series [1] deals with Cholesterol 24-hydroxylase (Homo sapiens, UniProt Q9Y6A2). Put plainly: biochemical.
Description: Inhibition of CH24H expressing human 293-F cells for 15 minutes using [14C] cholesterol as substrate and measured after 5 hrs by trypan blue staining based thin-layer chromatography
In the next series the target is CYP3A4 (Homo sapiens, UniProt P08684). The series is described as follows: Inhibition of human CYP3A4 at 10 uM incubated for 60 mins by LC/MS/MS analysis relative to control. Format: ADME.
Series [2] in a line: Lipophilicity, log D of compound at pH 7.4. The settings on record: buffer.
A further series concerns the target CYP2D6 (Homo sapiens, UniProt P10635). The series is described as follows: Inhibition of human CYP2D6 at 10 uM incubated for 60 mins by LC/MS/MS analysis relative to control. It counts as ADME.
The target of the next series is T1, CYP2C8 (Homo sapiens, UniProt P10632).
T1 sequence (P10632 whole entry): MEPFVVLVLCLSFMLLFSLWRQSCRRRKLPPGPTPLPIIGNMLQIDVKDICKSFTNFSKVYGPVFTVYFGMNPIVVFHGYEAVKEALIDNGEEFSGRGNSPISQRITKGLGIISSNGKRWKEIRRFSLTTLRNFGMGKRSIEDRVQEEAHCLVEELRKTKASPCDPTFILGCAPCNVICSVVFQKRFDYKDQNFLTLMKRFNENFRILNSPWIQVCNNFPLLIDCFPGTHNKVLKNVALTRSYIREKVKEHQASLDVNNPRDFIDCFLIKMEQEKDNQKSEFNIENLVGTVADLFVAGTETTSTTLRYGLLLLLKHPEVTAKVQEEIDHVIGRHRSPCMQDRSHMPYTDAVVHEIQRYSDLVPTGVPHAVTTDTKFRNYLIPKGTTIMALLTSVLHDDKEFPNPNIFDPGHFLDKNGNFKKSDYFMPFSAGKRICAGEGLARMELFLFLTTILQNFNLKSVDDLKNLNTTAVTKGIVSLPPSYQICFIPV
Put plainly: Inhibition of human CYP2C8 at 10 uM incubated for 60 mins by LC/MS/MS analysis relative to control. Format: ADME.

The subject of another series is Brain. Put plainly: In vivo inhibition of […] CH24H in C57BL/6N mouse brain assessed as reduction in 24HC level at 30 mg/kg, po for 3 days by HPLC analysis. It counts as functional. Conditions: 72 h, time 3 day.
Series [3] is described as follows: Plasma concentration in C57BL/6N mouse at 30 mg/kg, po and measured at 1 hr by LC/MS/MS analysis. Format: ADME, organism-based.
For the next series, the target named is CYP2C9 (Homo sapiens, UniProt P11712). Put plainly: Inhibition of human CYP2C9 at 10 uM incubated for 60 mins by LC/MS/MS analysis relative to control. It counts as ADME.
Sequence of CYP2C9 (P11712 whole entry): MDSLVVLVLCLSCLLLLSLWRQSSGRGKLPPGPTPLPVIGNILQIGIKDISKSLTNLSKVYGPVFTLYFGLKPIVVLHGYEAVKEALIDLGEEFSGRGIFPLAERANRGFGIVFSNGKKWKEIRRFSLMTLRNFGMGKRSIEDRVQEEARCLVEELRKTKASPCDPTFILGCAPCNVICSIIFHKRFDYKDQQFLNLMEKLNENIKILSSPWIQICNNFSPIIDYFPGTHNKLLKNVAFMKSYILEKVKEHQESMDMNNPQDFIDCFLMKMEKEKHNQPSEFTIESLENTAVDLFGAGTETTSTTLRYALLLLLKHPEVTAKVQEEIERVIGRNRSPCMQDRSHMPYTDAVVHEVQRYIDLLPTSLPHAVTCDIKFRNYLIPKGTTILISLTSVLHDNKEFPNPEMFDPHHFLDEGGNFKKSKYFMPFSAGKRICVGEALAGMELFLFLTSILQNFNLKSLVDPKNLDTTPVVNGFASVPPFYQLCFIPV
Series [4] is described as follows: Drug concentration in brain of C57BL/6N mouse at 30 mg/kg,po and measured at 1 hrs by LC/MS/MS analysis. It counts as ADME, organism-based. Conditions: read-out: Ct.

pIC50: −log10 of the molar value.

Sequence of Cholesterol 24-hydroxylase (Q9Y6A2 whole entry): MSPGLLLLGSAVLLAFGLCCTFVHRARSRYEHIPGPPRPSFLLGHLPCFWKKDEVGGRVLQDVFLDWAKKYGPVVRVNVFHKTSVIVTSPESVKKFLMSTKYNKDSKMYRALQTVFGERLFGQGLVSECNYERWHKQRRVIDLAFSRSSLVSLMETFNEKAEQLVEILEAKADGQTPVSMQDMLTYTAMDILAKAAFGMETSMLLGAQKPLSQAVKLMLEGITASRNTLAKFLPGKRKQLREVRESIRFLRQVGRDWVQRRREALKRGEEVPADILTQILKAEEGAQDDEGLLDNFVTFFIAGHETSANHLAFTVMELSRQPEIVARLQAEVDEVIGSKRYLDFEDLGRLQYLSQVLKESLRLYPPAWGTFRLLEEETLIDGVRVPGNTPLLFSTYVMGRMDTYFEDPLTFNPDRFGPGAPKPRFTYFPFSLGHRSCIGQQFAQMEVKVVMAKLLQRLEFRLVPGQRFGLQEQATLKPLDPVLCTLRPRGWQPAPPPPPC
Sequence of CYP3A4 (P08684 whole entry): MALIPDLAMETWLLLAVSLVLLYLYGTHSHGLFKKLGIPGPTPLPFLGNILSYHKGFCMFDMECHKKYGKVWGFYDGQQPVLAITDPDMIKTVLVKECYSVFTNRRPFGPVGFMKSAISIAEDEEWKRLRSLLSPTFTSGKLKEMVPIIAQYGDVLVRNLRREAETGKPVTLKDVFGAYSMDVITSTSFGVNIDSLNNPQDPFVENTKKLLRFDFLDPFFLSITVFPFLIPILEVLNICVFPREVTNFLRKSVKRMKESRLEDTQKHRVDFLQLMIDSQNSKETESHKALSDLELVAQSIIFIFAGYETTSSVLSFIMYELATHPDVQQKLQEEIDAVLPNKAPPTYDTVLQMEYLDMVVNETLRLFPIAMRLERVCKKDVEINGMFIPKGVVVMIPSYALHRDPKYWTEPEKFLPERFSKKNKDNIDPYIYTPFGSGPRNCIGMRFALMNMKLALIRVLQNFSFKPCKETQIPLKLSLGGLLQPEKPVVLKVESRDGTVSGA
Sequence of CYP2D6 (P10635 whole entry): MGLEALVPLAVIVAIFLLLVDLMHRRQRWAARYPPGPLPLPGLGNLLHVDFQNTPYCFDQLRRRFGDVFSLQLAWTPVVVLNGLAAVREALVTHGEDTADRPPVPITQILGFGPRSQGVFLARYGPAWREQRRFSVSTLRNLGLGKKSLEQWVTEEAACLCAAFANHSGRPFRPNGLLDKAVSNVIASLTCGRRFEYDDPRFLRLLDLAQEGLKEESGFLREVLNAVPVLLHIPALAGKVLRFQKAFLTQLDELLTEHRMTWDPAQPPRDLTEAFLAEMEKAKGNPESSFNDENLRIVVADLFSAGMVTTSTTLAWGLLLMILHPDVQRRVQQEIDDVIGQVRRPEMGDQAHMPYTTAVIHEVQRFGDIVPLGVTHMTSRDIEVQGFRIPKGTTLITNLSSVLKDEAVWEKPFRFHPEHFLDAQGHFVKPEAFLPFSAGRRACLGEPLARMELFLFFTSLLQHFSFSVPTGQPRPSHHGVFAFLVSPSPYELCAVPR

Regarding `CN(C)C(=O)C1CCN(c2cnccc2-n2cc(Br)cn2)CC1`, in [1], the pIC50 (in general, the IC50 on a negative log10 scale, so that one unit is a factor of ten) is 8.02. For the same molecule, the inhibition (usually the drop in the measured response relative to a control, in per cent) at 1 h, 10 µM at CYP3A4 is 31%. In [2], the log distribution coefficient (logD) (commonly lipophilicity at a set pH, counting ionised and neutral species) was determined as 2.1.

Molecule `Cc1cnn(-c2ccncc2N2CCC(C(=O)N(C)C)CC2)c1` showed a pIC50 in [1] of 8.07. Besides, the inhibition at 1 h, 10 µM against CYP3A4 came to 21%; at CYP2D6 it was 3%; on CYP2C8, 2%; against CYP2C9, 19%. Besides, the inhibition in vivo – broadly, the drop in the measured response relative to a control, in per cent – at 30 mg/kg in the series with Brain amounted to 26%. For the same molecule, the logD in series [2] amounted to 1.6. Further, the concentration at 1 h in series [3] was found to be 179 µM; in series [4] it was 0.102 µM.

In turn, `CN(C)C(=O)C1CCN(c2cnccc2-n2cc(C3CC3)cn2)CC1` gave a pIC50 in [1] of 7.92. Moreover, at CYP3A4, the inhibition at 1 h, 10 µM was 56%. In series [2], this molecule gave a logD of 2.1.

`O=C(NC1CC1)N1CCN(c2cnccc2-c2ccccc2)CC1` showed a negative logarithm of the IC50 (pIC50) in [1] of 7.28.

Take `O=C(NC1CC1)C1CCN(c2cncnc2-c2ccccc2)CC1`: the pIC50 in series [1] was 7.36. The molecule also gave an inhibition at 1 h, 10 µM at CYP3A4 of 50%. For the same molecule, the log distribution coefficient (logD) in [2] worked out at 1.8.

In series [1], `CN(C)C(=O)C1CCN(c2cnccc2-n2cc(Cl)cn2)CC1` showed a pIC50 of 7.62. On CYP3A4, this molecule showed an inhibition at 1 h, 10 µM of 19%.

With `O=C(NC1CC1)C1CCN(c2cnccc2-c2ccccc2)CC1`, in [1], the pIC50 was 8.09. The molecule further gave an inhibition at 1 h, 10 µM against CYP3A4 of 83%. The molecule further displayed a log distribution coefficient (logD) in series [2] of 2.5.

Regarding `O=C(NC1CC1)c1ccc(-c2cnccc2-c2ccccc2)cc1`, in [1], the negative logarithm of the IC50 (pIC50) was 7.13.

Molecule `O=C(NC1CC1)N1CCC(c2cnccc2-c2ccccc2)CC1` had a pIC50 in series [1] of 6.02.

The molecule `CCN(C)C(=O)C1CCN(c2cncnc2-c2ccccc2)CC1` showed a pIC50 in [1] of 7.85. On CYP3A4, the inhibition at 1 h, 10 µM was 35%. In series [2], this molecule returned a logD of 2.1.

In turn, `Cc1ccn(-c2ccncc2N2CCC(C(=O)N(C)C)CC2)n1` gave a negative logarithm of the IC50 (pIC50) in [1] of 5.96. On CYP3A4, the inhibition at 1 h, 10 µM was determined as 5%. Besides, the logD in series [2] is 1.5.

Molecule `CN(C)C(=O)C1CCN(c2cnccc2-c2ccccn2)CC1` had a negative-log IC50 (pIC50) in series [1] of 7.17. Besides, the inhibition at 1 h, 10 µM against CYP3A4 amounted to 11%. This molecule returned a logD in series [2] of 1.2.

Regarding `CN(C)C(=O)C1CCN(c2cnccc2-n2cc(C(F)(F)F)cn2)CC1`, the pIC50 in series [1] is 7.19. Further, on CYP3A4, the inhibition at 1 h, 10 µM stood at 47%. The molecule also showed a logD in series [2] of 2.1.

`CN(C)C(=O)C1CCN(c2cncnc2-c2ccccc2)CC1` showed a pIC50 in series [1] of 7.80. The inhibition at 1 h, 10 µM against CYP3A4 was 28%. The molecule further displayed a logD in [2] of 1.7.

Turning to `CN(C)C(=O)C1CCN(c2cnccc2-n2cccn2)CC1`, the negative-log IC50 (pIC50) in series [1] is 7.32. On CYP3A4, this molecule returned an inhibition at 1 h, 10 µM of 1%. Also, in [2], the logD was 1.1.

As for `Cc1cnc(-c2ccncc2N2CCC(C(=O)N(C)C)CC2)s1`, in [1], the pIC50 was 7.92. Moreover, the inhibition at 1 h, 10 µM against CYP3A4 is 32%. For the same molecule, the log distribution coefficient (logD) in [2] amounted to 2.

Take `CNC(=O)C1CCN(c2cncnc2-c2ccccc2)CC1`: the negative logarithm of the IC50 (pIC50) in series [1] is 7.14. This molecule registered an inhibition at 1 h, 10 µM at CYP3A4 of 31%. The molecule also yielded a logD in series [2] of 1.4.

In turn, `O=C(NC1CC1)C1CCN(c2cnccc2-c2ccccn2)CC1` had a pIC50 in series [1] of 6.80. At CYP3A4, this molecule had an inhibition at 1 h, 10 µM of 29%. In series [2], the logD was 1.3.

Turning to `O=C(Nc1ccccc1)C1CCN(c2cncnc2-c2ccccc2)CC1`, the pIC50 in series [1] was 7.55. Also, the inhibition at 1 h, 10 µM on CYP3A4 amounted to 84%. This molecule also yielded a logD in series [2] of 2.7.

The molecule `CN(C)C(=O)C1CCN(c2cncnc2-c2ccc(F)cc2)CC1` showed a pIC50 in series [1] of 8.14. On CYP3A4, this molecule yielded an inhibition at 1 h, 10 µM of 37%. Moreover, the logD in series [2] was determined as 1.9.

In series [1], `CCNC(=O)C1CCN(c2cncnc2-c2ccccc2)CC1` gave a pIC50 of 7.24. This molecule also came in with an inhibition at 1 h, 10 µM at CYP3A4 of 42%. The molecule also gave a pH-dependent lipophilicity (logD) in series [2] of 1.8.

Molecule `S=C(NC1CCCCC1)N1CCC(c2cnc[nH]2)CC1` [THIOPERAMIDE] had a pIC50 in series [1] of 6.37.
